Measured values taken from patent publication US20250242170A1, “Methods and Systems for Improving Photodynamic Therapy by Increasing Depth of Penetration Without Concurrently Increasing Energy Deposition” (priority 2024, published 2025).

How the values were obtained:
Glioblastoma multiforme = experiment: Use case: PDT and SONG laser in treatment of glioblastoma multiforme; assay type: in vivo, human
Excerpt: The process is further described within a use case scenario of treating a person diagnosed with glioblastoma multiforme. Glioblastoma multiforme is the most aggressive of the brain cancers characterized by rapid growth and extensions throughout the brain making it surgically incurable. Prognosis without treatment is usually 3 months and with maximum treatment only 18 months. The conventional treatment protocol is neurosurgical debulking, targeted and whole brain radiation, followed by 6 months of chemotherapy with Temodar. After these treatments have been exhausted and disease recurs the prognosis is very poor and short term.
The patient described in the stated use case received debulking neurosurgery, targeted radiation to the areas of visible mass, followed by whole brain radiation, and then 6 months of Temodar. After these treatments they suffered memory loss and emotional instability.
A month after completing their last cycle of chemotherapy, the patient received the SONG Laser-based photodynamic therapy in accordance with the present specification, using ICG as the photo-active compound. On days 1, 2, and 3 of the treatment, the patient received 50 mg of nanoscaled or liposomal ICG. On day 3 they were treated with a SONG laser device at 810 nm near infra-red with a primary beam power of 5 Watts. From the peak power measured after going through the beam expander and SONG generator of 3.5 Watts this was reduced 60% to a measured output power of 1.4 Watts. The treated laser was applied in a beam expanded to 25 mm to the whole brain transcutaneously for 12 minutes total duration, by slowly scanning the 25 mm beam systematically over the skull under which brain substance is located. […]
In the mentioned use case, an additional adjunct to the patient's PDT treatment included administering SONG Laser activated and guided very small embryonic-like (VSEL) stem cells 3 days before the PDT cycle began. […] This procedure with SONG Laser activated and guided VSELs was repeated 1 day before the PDT procedure, except with 2.7 times the quantity of VSELs.

prostate neoplasia = experiment: Use case: PDT and SONG laser in treatment of prostate neoplasia; settings: a few weeks after treatment
[1] = same methylene blue + SONG laser protocol

Structure (SMILES) | MRI scan repeated, recurrence (Glioblastoma multiforme; 4 months after completing last chemotherapy, same ICG + SONG laser 810 nm protocol) | MRI scan, recurrence of Glioblastoma multiforme (Glioblastoma multiforme; a month after PDT, 50 mg nanoscaled or liposomal ICG on days 1, 2, 3, SONG laser 810 nm, 1.4 W output, whole brain, 12 min on two days, adjunct laser-activated VSELs) | memory and mood (Glioblastoma multiforme; over the next 2 months after the first MRI, same ICG + SONG laser protocol) | reduction of PSA (prostate neoplasia; 50 mg orally and also intra-rectally, 1 h wait, SONG laser 660 nm, 80 mW output, through the perineum, 10 min, PSA of 16 before) [%] | PSA level after treatment (prostate neoplasia; PSA of 16 before, same methylene blue + SONG laser protocol) | adverse effects (prostate neoplasia; [1]) | urinary symptoms (prostate neoplasia; [1])
CC1(C)C(/C=C/C=C/C=C/C=C2\N(CCCCS(=O)(=O)O)c3ccc4ccccc4c3C2(C)C)=[N+](CCCCS(=O)(=O)[O-])c2ccc3ccccc3c21 [ICG, Indocyanine Green] | no evidence of recurrence | no evidence of recurrence | improvements in their memory and mood | – | – | – | –
CN(C)c1ccc2nc3ccc(=[N+](C)C)cc-3sc2c1 [methylene blue, Methylene Blue] | – | – | – | 50 | 8 | no adverse effects | improvements in urinary symptoms
